In patent publication US6541450B1, “Parathyroid hormone analogues for the treatment of osteoporosis” (National Research Council of Canada, priority 1994, dated 2003):
“Also recorded” adds a separate entry of the source. Like-named read-outs stand apart in the source and are kept apart here. Where a SMILES comes first, the peptide text is derived from it. Bridges are numbered along the chain shown (N, C = ends). Where no end group is shown, it is not given here.

How the values were obtained:
[1] = tested on: anesthetized female Sprague-Dawley rats; experiment: Hypotensive effect, tail artery pressure in anaesthetized rats; conditions: for time to reduction of tail artery pressure: injection into a femoral vein
Description: Female Sprague-Dawley rats (weighing over 290 g) were anaesthetized with intraperitoneally injected sodium pentobarbital (65 mg/kg body weight). Rectal temperature was monitored with a YS1402 thermistor (Yellow Springs Instrument Co., Inc. Yellow Springs, Ohio) and maintained between 36.0 and 38.5° C. throughout the experiment. Ear pinna temperature was also monitored using a YSi banjo thermistor. The tail artery was exposed to cannulated with a Jelco 25-gIV catheter (Johnson and Johnson Medical Inc., Arlington, Tex.) and connected to a Statham pressure transducer, the signals from which were recorded digitally with a Biopac Systems MP100 Monitor (Harvard Instruments, Saint Laurent, QC, Canada). For intravenous injection of PTH or one of its fragments, a femoral vein was also exposed. After surgery, the rat was allowed to stabilize for 8 min after which PTH or one of its fragments (dissolved in acidified saline containing 0.001 N HCl) was injected into the femoral vein or under the skin of the abdomen. Data were collected for 12 min after intravenous injection or for 22 min after subcutaneous injection.

[2] = molecular target: T1, adenylyl cyclase, ROS 17/2 cells (Rattus norvegicus, UniProt P25961); experiment: Adenylyl cyclase stimulation, [3H]-cyclic AMP production in ROS 17/2 cells; format: cell-based
T1 sequence (P25961 27-591): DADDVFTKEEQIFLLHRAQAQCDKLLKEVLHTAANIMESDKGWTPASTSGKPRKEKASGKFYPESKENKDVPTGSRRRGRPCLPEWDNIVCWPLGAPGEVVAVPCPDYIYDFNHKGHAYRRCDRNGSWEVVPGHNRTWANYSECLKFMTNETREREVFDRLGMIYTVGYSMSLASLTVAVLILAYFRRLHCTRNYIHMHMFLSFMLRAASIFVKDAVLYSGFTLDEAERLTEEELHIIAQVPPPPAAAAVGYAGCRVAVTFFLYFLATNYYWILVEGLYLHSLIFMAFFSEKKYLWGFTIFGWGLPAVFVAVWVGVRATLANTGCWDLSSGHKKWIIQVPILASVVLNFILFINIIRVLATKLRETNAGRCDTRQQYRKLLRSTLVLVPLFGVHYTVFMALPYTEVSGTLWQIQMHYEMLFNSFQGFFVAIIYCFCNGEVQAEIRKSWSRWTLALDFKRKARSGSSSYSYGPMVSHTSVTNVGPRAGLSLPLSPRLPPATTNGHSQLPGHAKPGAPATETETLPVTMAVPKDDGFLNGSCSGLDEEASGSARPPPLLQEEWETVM

[3] = tested on: ovariectomized (OVX) rats with severely depleted trabecular bone; experiment: Bone restoration in OVX rats with severely depleted trabecular bone, treatment from 9 weeks after OVX; format: in vivo, rat; conditions: 0.6 nmole/100 g once daily for 6 weeks, started 9 weeks after OVX
Description: Doses were based upon dose-response data on hPTH(1-31)-NH2. […] By the end of the 9th week they had lost about 75% of their femoral trabecular bone mass. […] The fragment could also stimulate trabecular bone growth in much older rates. […] Accordingly, the dosage of 0.6 nmole/100 g of body weight was used in further tests.
In this second example of bone restoration, the abilities of the lactam fragments to restore severely depleted trabecular bone are compared. In this experiment, the 6-week program of once-daily injections of 0.6 nmole of peptide/100 g of body weight of young sexually mature rats was delayed until the end of the 9th week after OVX. At this time, 75% of their trabecular bone had been lost.

[4] = tested on: ovariectomized (OVX) Sprague-Dawley rats; experiment: Anabolic activity in ovariectomized rat model, injections from 2nd to 8th week after OVX; format: in vivo; conditions: for osteogenic activity, in words: subcutaneously injected
Description: A full description of the protocol is given in Rixon et al, J. Bone & Mineral Research 9, 1179-1189, 1994 and Whitfield et al Calcif. Tissue Int. 58, 81-87, 1996 incorporated herein by reference. Normal, Sham-OVX (ovariectomized), and OVX Sprague-Dawley rats (3 months-old; 255-260 g) were purchased from
Charles River Laboratories (St. Constant, QC). The rats were randomized into groups of 8 animals which received Purina rat chow and water ad libitum. There were no unscheduled deaths. The animals received 6, once-daily subcutaneous injections/week starting at the end of the second week after OVX, and ending at the end of the 8th week after OVX (i.e., 36 injections). Eight Sham-OVX and 8 OVX controls rats received 36 injections of vehicle (0.15 M NaCl containing 0.001N HCl) while 8 OVX rats received 0.6 nmole of fragment in vehicle/100 g of body weight). At the end of the 8th week after OVX, femurs were removed isolated, cleaned, and cut in half at mid-diaphysis and the proximal half was discarded. After removing the epiphysis, each half-femur was split lengthwise into two parts and the bone marrow was flushed out.
The bone-building potencies of the fragments were assessed from the changes in the mean thicknesses (area/perimeter) of the trabeculae in the distal half-femurs from the variously treated animals. To measure mean trabecular thickness, the two demineralized half-femurs from each rat were dehydrated and embedded in paraffin. Longitudinal, 10-μm sections from the middle plane of each bone were cut and then strained with Sanderson's rapid bone stain (Surgipath Medical Industries, Inc., Winnipeg, MB, Canada). The mean trabecular thickness was measured using a M4 imaging system and bone morphometric software from Imaging Research Inc., (St. Catherines, ON, Canada).
The results are further presented in the form of a bar graph in FIG. 7.

[5] = molecular target: T1, adenylyl cyclase, ROS 17/2 cells; conditions: previously reported, cited from earlier work
PTH receptor [6] = molecular target: T2, PTH receptor (rat (ROS 17/2 rat osteosarcoma cell …, UniProt P25961)); experiment: cell-based or functional assay
PTH receptor [7] = molecular target: T2, PTH receptor; experiment: cell-based or functional assay; remark: listed apart in the source
[8] = ROS cell line, read-out: EC50, AC-stimulating activity
[9] = intravenous, 0.8 nmol/100 g of body weight

CC[C@H](C)[C@H](NC(=O)[C@H](CCC(=O)O)NC(=O)[C@H](CO)NC(=O)[C@@H](NC(=O)[C@@H](N)CO)C(C)C)C(=O)N[C@@H](CCC(N)=O)C(=O)N[C@@H](CC(C)C)C(=O)N[C@@H](CCSC)C(=O)N[C@@H](Cc1c[nH]cn1)C(=O)N[C@@H](CC(N)=O)C(=O)N[C@@H](CC(C)C)C(=O)NCC(=O)N[C@@H](CCCCN)C(=O)N[C@@H](Cc1c[nH]cn1)C(=O)N[C@@H](CC(C)C)C(=O)N[C@@H](CC(N)=O)C(=O)N[C@@H](CO)C(=O)N[C@@H](CCSC)C(=O)N[C@@H](CCC(=O)O)C(=O)N[C@@H](CCCNC(=N)N)C(=O)N[C@H](C(=O)N[C@H]1CCC(=O)NCCCC[C@@H](C(=O)N[C@@H](CC(C)C)C(=O)N[C@@H](CC(C)C)C(=O)N[C@@H](CCC(N)=O)C(=O)N[C@@H](CC(=O)O)C(=O)N[C@H](C(N)=O)C(C)C)NC(=O)[C@H](CCCNC(=N)N)NC(=O)[C@H](CC(C)C)NC(=O)[C@H](Cc2c[nH]c3ccccc23)NC1=O)C(C)C [peptide 3, [Leu^27]cyclo(Glu^22-Lys^26)-hPTH-(1-31)-NH2] (H-SVSEIQLMHNLGKHLNSMERVEWLRKLLQDV-NH2; lactam 22-26; N-terminus assumed)
hypotensive action, in words ([1]; subcutaneous injection): enhanced hypotensive effects | time for tail artery pressure to fall to its minimum ([1]; subcutaneous injection): much shorter time | increase in activity (AC) of cyclization plus Leu27 versus native sequence 1 ([2]; ROS cell line): ~6 fold | trabecular bone volume ([3]; listed as (Leu^27)cyclo(Glu^22-Lys^26)-hPTH-(1-31)NH2): restored the trabecular bone volume to the values in normal control rats | trabecular bone volume ([3]; listed as (Leu^27)cyclo(Glu^22-Lys^26)hPTH-(1-31)-NH2): most effective of the fragments, restoring the bones to the values in normal control rats | trabecular thickness (bone-building potency) ([4]; 0.6 nmole/100 g s.c., 36 injections, weeks 2-8 after OVX): especially superior activity compared to the linear analogue

CC[C@H](C)[C@H](NC(=O)[C@H](CCC(=O)O)NC(=O)[C@H](CO)NC(=O)[C@@H](NC(=O)[C@@H](N)CO)C(C)C)C(=O)N[C@@H](CCC(N)=O)C(=O)N[C@@H](CC(C)C)C(=O)N[C@@H](CCSC)C(=O)N[C@@H](Cc1c[nH]cn1)C(=O)N[C@@H](CC(N)=O)C(=O)N[C@@H](CC(C)C)C(=O)NCC(=O)N[C@@H](CCCCN)C(=O)N[C@@H](Cc1c[nH]cn1)C(=O)N[C@@H](CC(C)C)C(=O)N[C@@H](CC(N)=O)C(=O)N[C@@H](CO)C(=O)N[C@@H](CCSC)C(=O)N[C@@H](CCC(=O)O)C(=O)N[C@@H](CCCN=C(N)N)C(=O)N[C@H](C(=O)N[C@@H](CCC(=O)O)C(=O)N[C@@H](Cc1c[nH]c2ccccc12)C(=O)N[C@@H](CC(C)C)C(=O)N[C@@H](CCCN=C(N)N)C(=O)N[C@@H](CCCCN)C(=O)N[C@@H](CCCCN)C(=O)N[C@@H](CC(C)C)C(=O)N[C@@H](CCC(N)=O)C(=O)N[C@@H](CC(=O)O)C(N)=O)C(C)C [peptide 6, hPTH-(1-30)-NH2] (H-SVSEIQLMHNLGKHLNSMERVEWLRKKLQD-NH2)
rate of transport of subcutaneously injected peptide to the vascular system ([1]; subcutaneous, 0.8 nmol/100 g of body weight): significantly (p<0.05) reduced rates of transport | EC50 [2, 8]: 20 nM | EC50 [5, 8]: 20 nM

CC[C@H](C)[C@H](NC(=O)[C@H](CCC(=O)O)NC(=O)[C@H](CO)NC(=O)[C@@H](NC(=O)[C@@H](N)CO)C(C)C)C(=O)N[C@@H](CCC(N)=O)C(=O)N[C@@H](CC(C)C)C(=O)N[C@@H](CCSC)C(=O)N[C@@H](Cc1c[nH]cn1)C(=O)N[C@@H](CC(N)=O)C(=O)N[C@@H](CC(C)C)C(=O)NCC(=O)N[C@@H](CCCCN)C(=O)N[C@@H](Cc1c[nH]cn1)C(=O)N[C@@H](CC(C)C)C(=O)N[C@@H](CC(N)=O)C(=O)N[C@@H](CO)C(=O)N[C@@H](CCSC)C(=O)N[C@@H](CCC(=O)O)C(=O)N[C@@H](CCCNC(=N)N)C(=O)N[C@H](C(=O)N[C@@H](CCC(=O)O)C(=O)N[C@@H](Cc1c[nH]c2ccccc12)C(=O)N[C@@H](CC(C)C)C(=O)N[C@@H](CCCNC(=N)N)C(=O)N[C@@H](CCCCN)C(=O)N[C@@H](CCCCN)C(=O)N[C@@H](CC(C)C)C(=O)N[C@@H](CCC(N)=O)C(=O)N[C@@H](CC(=O)O)C(N)=O)C(C)C [peptide 6, hPTH-(1-30)-NH2] (H-SVSEIQLMHNLGKHLNSMERVEWLRKKLQD-NH2)
time to reduction of tail artery pressure [1]: about 1 minute | hypotensive action, in words ([1]; intravenous injection): potently hypotensive | hypotensive action, in words ([1]; subcutaneous injection): reduces blood pressure as much as hPTH-(1-31)-NH2 | time for tail artery pressure to fall to its minimum ([1]; subcutaneous injection): 13.8 ± 2.3 min | total blood pressure drop versus other analogues ([1]; subcutaneously or intravenously, 0.8 nmol/100 g of body weight): not significantly different (p>0.05) | AC-stimulating activity, comparison in words [2]: stimulates AC almost as strongly as hPTH-(1-31)-NH and hPTH-(1-34) | osteogenic activity, in words [4]: does not stimulate bone formation

[Leu^27]-hPTH-(1-34)-NH2 (SVSEIQLMHNLGKHLNSMERVEWLRKLLQDVHNF-NH2; not fully specified (bridges); UniProt P01270 32-65, looked up, variant K27L) [reference compound]
AC activity in the ROS cell line, comparison in words [5]: more active in stimulating AC activity in the ROS cell line than hPTH-(1-34)-NH2

B1: hPTH-(1-84) (protein, UniProt P01270 32-115, looked up)
Parathyroid hormone: SVSEIQLMHNLGKHLNSMERVEWLRKKLQDVHNFVALGAPLAPRDAGSQRPRKKEDNVLVESHEKSLGEADKADVNVLTKAKSQ
modifications: Parathyroid hormone
notes: full-length human parathyroid hormone, AC/PLC-stimulating
time to reduction of tail artery pressure [1]: about 1 minute | hypotensive action, in words ([1]; intravenous injection): no significant difference | reduction of tail artery pressure [1, 9]: 43.2±5.8 mm Hg | time to maximum drop in tail artery pressure [1, 9]: 0.9 ± 0.08 min | time for tail artery pressure to fall to its minimum ([1]; subcutaneous injection): needs the same amount of time to reduce the blood pressure | osteogenic activity, in words [4]: equally osteogenic; also recorded: strongly osteogenic

SVSEIQLMHNLGKHLNSMERVEWLRKKLQDV-NH2 (lactam 27-30) [cyclo(Lys^27-Asp^30)-hPTH-(1-31)-NH2]
adenylyl cyclase stimulation, EC50 (PTH receptor [6]): 40.3 nM | Adenylyl Cyclase (EC50) (PTH receptor [7]): 40 nM
